How the values were obtained:
[1] = tested on: NCI-H358 tumor-bearing mice; test: Anti-tumor efficacy in NCI-H358 tumor-bearing mice, combination with AMG510; format: in vivo, NOG mice
Protocol: SPF female NOG mice (purchased from Beijing Vital River Laboratory Animal Technology Co., Ltd.) with certificate No. 1100112211001153625 were used in the experiment.
NCI-H358 cells were routinely subcultured for the subsequent in-vivo experiment. The cells were collected by centrifugation. Then the NCI-H358 cells were resuspended in an equal-proportion mixture of PBS (1×) and Matrigel Matrix (Corning) to prepare a cell suspension with a cell concentration of 25×10^6 cells/mL. On day 0, 0.2 mL of the cell suspension was taken and subcutaneously inoculated to the right abdominal area of NOG mice to establish NCI-H358 tumor-bearing mouse models.
Six days after the tumor cell inoculation, the tumor volume in each mouse was measured. The mice were grouped (with 7 mice in each group).
Administration was performed on days 6, 9, 12, and 15 after the inoculation of NCI-H358 cells. Mice were monitored for tumor volume and body weight twice a week. […] Mice were monitored for tumor volume twice a week, and were monitored for body weight every day during the administration, and twice a week after the end of administration. […] On day 33 after the inoculation, the relative tumor growth inhibition (TG1%) was calculated by the following formula: TG1%=100%×(control group tumor volume−treatment group tumor volume)/(control group tumor volume−control group tumor volume before administration).
Tumor volume measurement: The maximum length of major axis (L) and maximum length of minor axis (W) of tumors were measured with a vernier caliper, and tumor volume was calculated by the following formula: V=L×W^2/2. The mice were weighed using an electronic balance.

[2] = tested on: LS180 (EGFR^R521K, KRAS^G12D) CRC tumor cell line; test: Proliferation inhibition experiment, LS180, combination with MRTX1133; format: cell-based; settings: 15.62 nM MRTX1133, read as without bsAb (starting value of the increase)
Protocol: • (1) NSCLC (H358) (Cobioer, CBP60136) and CRC (LS180) (Cobioer, CBP60034): plated at 1500-2500 cells/100 μL in a 96-well low-adsorption plate (Corning, CLS7007-24EA) for 3D cell culture. • (2) The antibody molecules and small molecule inhibitors prepared in advance by dilution were added to the corresponding cell well plate, mixed well, and cultured at 37° C. with 5% CO2 for 5 days. • (3) After 5 days of continuous culture for proliferation inhibition assay, the Cell-Titer reagent (Promega, G7572) prepared in advance was added to cell wells, and the plate was left to stand at room temperature for 15-25 min in the dark. • (4) Cell-Titer and the above cell mixture were transferred to a 96-well white-bottom plate (NUNC, 136101) and detected by a multimode microplate reader (Molecular Devices, Spectra MAXi3).

SK-MES-1 = test: Proliferation inhibition experiment, SK-MES-1 (NSCLC); format: cell-based; settings: TKI highest concentration 1000 nM
Protocol: (§1) • (1) NSCLC: plated at 1500-2500 cells/100 μL in a 96-well low-adsorption plate (Corning, CLS7007-24EA) for 3D cell culture, in which the following cell lines and specific amounts were used: • NSCLC: 2000 cells/100 μL/well • NCI-H292: Cell Bank of the Chinese Academy of Sciences, SCSP-582 • NCI-H322: Cobioer, CBP60134 • NCI-H1650: ATCC, CRL-5883 • NCI-H1975: ATCC, CRL-5908 • SK-MES-1: CoBioer, CBP60152 • NCI-H1703: ATCC, HTB-43 • PC9+hB7H3: constructed as described above • CRC and HNSCC: plated at 1500-2000 cells/100 μL in a 96-well white-bottom plate (NUNC, 136101) for 2D cell culture, in which the following cell lines and specific amounts were used: • CRC: 1500 cells/100 μL/well • CCK-81: CoBioer, CBP60581 • HT-55: CoBioer, CBP60012 • H508: CoBioer, CBP60795 • LS180: CoBioer, CBP60034 • HNSCC: 1500 cells/100 μL/well • TE-1: CoBioer, CBP60655 • Colo680: CoBioer, CBP60452. (2) The antibody molecules prepared in advance by dilution were added to the corresponding cell well plate, mixed well, and cultured in an incubator at 37° C. with 5% CO2 for 5 days. • (3) After 5 days of continuous culture for proliferation inhibition assay, the Cell-Titer reagent (Promega, G7572) prepared in advance was added to cell wells, the plate was left to stand at room temperature for 15-25 min in the dark, and then CRC and HNSCC cells were directly detected by a multimode microplate reader (Molecular Devices, Spectra MAXi3). • (4) NSCLC: Cell-Titer and the cell mixture were transferred to a 96-well white-bottom plate (NUNC, 136101) and detected by a multimode microplate reader (Molecular Devices, Spectra MAXi3).

H1703 = test: Proliferation inhibition experiment, H1703 (NSCLC); format: cell-based; settings: NCI-H1703; TKI highest concentration 1000 nM
Protocol: as §1

| Structure (SMILES) | sensitivity of the cell line to EGFR-TKI, in words (SK-MES-1) | sensitivity of the cell line to EGFR-TKI, in words (H1703) | also measured |
| --- | --- | --- | --- |
| C=CC(=O)N1CCN(c2nc(=O)n(-c3c(C)ccnc3C(C)C)c3nc(-c4c(O)cccc4F)c(F)cc23)[C@@H](C)C1 [AMG510, sotorasib] |  |  | Tumor volume (mm^3) ([1]; NCI-H358, NOG mice, antibodies 10 mg/kg i.p. Q3-4D x4 (h-IgG 20 mg/kg), AMG510 10 mg/kg intragastric QD x14, day 33): 180 mm^3; Tumor growth inhibition (%) ([1]; NCI-H358, NOG mice, antibodies 10 mg/kg i.p. Q3-4D x4, AMG510 10 mg/kg intragastric QD x14, day 33, vs h-IgG 20 mg/kg): 89%; body weight of mice ([1]; NCI-H358 tumor-bearing NOG mice, during administration and on day 33): caused a gradual decrease in the body weight of mice |
| C#Cc1c(F)ccc2cc(O)cc(-c3ncc4c(N5CC6CCC(C5)N6)nc(OC[C@@]56CCCN5C[C@H](F)C6)nc4c3F)c12 [MRTX1133] |  |  | anti-LS180 tumor efficacy [2]: 36.45% |
| C#Cc1cccc(Nc2ncnc3cc(OCCOC)c(OCCOC)cc23)c1 [erlotinib] | resistant and not sensitive | resistant and not sensitive |  |
| C=CC(=O)Nc1cc(Nc2nccc(-c3cn(C)c4ccccc34)n2)c(OC)cc1N(C)CCN(C)C [osimertinib] | resistant and not sensitive | resistant and not sensitive |  |
